Test results as given in ChEMBL document CHEMBL5325456, “5-(4-Hydroxyphenyl)-3H-1,2-dithiole-3-thione derivatives of brefeldin A: Design, synthesis and cytotoxicity in MDA-MB-231 human breast cancer cells” (Bioorg Med Chem, 2023).

Experiments:
[1] = Antiproliferative activity against human L02 cells assessed as reduction in cell viability incubated for 48 hrs by CCk-8 assay; assay type: toxicity, cell-based
MDA-MB-231 = assay: Antiproliferative activity against human MDA-MB-231 cells assessed as reduction in cell viability incubated for 48 hrs by CCk-8 assay; assay type: functional, cell-based; settings: MDA-MB-231, 48 h
HepG2 = assay: Antiproliferative activity against human HepG2 cells assessed as reduction in cell viability incubated for 48 hrs by CCk-8 assay; assay type: functional, cell-based; settings: HepG2, 48 h
DU-145 = assay: Antiproliferative activity against human DU-145 cells assessed as reduction in cell viability incubated for 48 hrs by CCk-8 assay; assay type: functional, cell-based; settings: DU-145, 48 h
A549 = assay: Antiproliferative activity against human A549 cells assessed as reduction in cell viability incubated for 48 hrs by CCk-8 assay; assay type: functional, cell-based; settings: A549, 48 h
A-375 = assay: Antiproliferative activity against human A-375 cells assessed as reduction in cell viability incubated for 48 hrs by CCk-8 assay; assay type: functional, cell-based; settings: A-375, 48 h
HeLa = assay: Antiproliferative activity against human HeLa cells assessed as reduction in cell viability incubated for 48 hrs by CCk-8 assay; assay type: functional, cell-based
[2] = Selectivity index, ratio of IC50 for antiproliferative activity against human L02 cells to IC50 for antiproliferative activity against human MDA-MB-231 cells; assay type: toxicity, cell-based; settings: L02 cells and MDA-MB-231 cells, read-out: Ratio IC50

Compound | IC50 at 48 h [1] | IC50 (MDA-MB-231) | IC50 (HepG2) | IC50 (DU-145) | IC50 (A549) | IC50 (A-375) | IC50 (HeLa) | selectivity ratio [2]
C[C@H]1CCC/C=C/[C@@H]2C[C@H](OC(=O)c3ccccc3C(=O)OCCOc3ccc(-c4cc(=S)ss4)cc3)C[C@H]2[C@H](OC(=O)c2ccccc2C(=O)OCCOc2ccc(-c3cc(=S)ss3)cc2)/C=C/C(=O)O1 | > 40 µM | > 40 µM | > 40 µM | > 40 µM | > 40 µM | > 40 µM | > 40 µM | –
C[C@H]1CCC/C=C/[C@@H]2C[C@H](O)C[C@H]2[C@H](OC(=O)CCC(=O)OCCCCOc2ccc(-c3cc(=S)ss3)cc2)/C=C/C(=O)O1 | 1.64 µM | 0.5 µM | 0.72 µM | 0.87 µM | 1.46 µM | 0.83 µM | 0.86 µM | 3.28
C[C@H]1CCC/C=C/[C@@H]2C[C@H](OC(=O)CCC(=O)OCCOc3ccc(-c4cc(=S)ss4)cc3)C[C@H]2[C@H](OC(=O)CCC(=O)OCCOc2ccc(-c3cc(=S)ss3)cc2)/C=C/C(=O)O1 | > 40 µM | > 40 µM | > 40 µM | > 40 µM | > 40 µM | > 40 µM | 5.68 µM | –
C[C@H]1CCC/C=C/[C@@H]2C[C@H](OC(=O)CCC(=O)OCCCCCCOc3ccc(-c4cc(=S)ss4)cc3)C[C@H]2[C@H](O)/C=C/C(=O)O1 | > 80 µM | > 40 µM | > 40 µM | > 40 µM | > 40 µM | > 40 µM | 25.2 µM | –
C[C@H]1CCC/C=C/[C@@H]2C[C@H](O)C[C@H]2[C@H](OC(=O)c2ccccc2C(=O)Oc2ccc(-c3cc(=S)ss3)cc2)/C=C/C(=O)O1 | 3.55 µM | 1.34 µM | 7.03 µM | > 40 µM | 0.33 µM | 1.07 µM | 0.3 µM | 2.64
C[C@H]1CCC/C=C/[C@@H]2C[C@H](OC(=O)CCC(=O)OCCCCOc3ccc(-c4cc(=S)ss4)cc3)C[C@H]2[C@H](O)/C=C/C(=O)O1 | > 80 µM | > 40 µM | > 40 µM | > 40 µM | > 40 µM | > 40 µM | > 40 µM | –
C[C@H]1CCC/C=C/[C@@H]2C[C@H](O)C[C@H]2[C@H](OC(=O)CCC(=O)Oc2ccc(-c3cc(=S)ss3)cc2)/C=C/C(=O)O1 | 8.18 µM | 1.35 µM | 7.44 µM | 16.1 µM | 3.19 µM | 3.62 µM | 2.35 µM | 6.06
C[C@H]1CCC/C=C/[C@@H]2C[C@H](OC(=O)c3ccccc3C(=O)OCCCCCCOc3ccc(-c4cc(=S)ss4)cc3)C[C@H]2[C@H](OC(=O)c2ccccc2C(=O)OCCCCCCOc2ccc(-c3cc(=S)ss3)cc2)/C=C/C(=O)O1 | > 40 µM | > 40 µM | > 40 µM | > 40 µM | > 40 µM | > 40 µM | > 40 µM | –
C[C@H]1CCC/C=C/[C@@H]2C[C@H](OC(=O)CCC(=O)Oc3ccc(-c4cc(=S)ss4)cc3)C[C@H]2[C@H](OC(=O)CCC(=O)Oc2ccc(-c3cc(=S)ss3)cc2)/C=C/C(=O)O1 | > 40 µM | > 40 µM | > 40 µM | > 40 µM | > 40 µM | > 40 µM | > 40 µM | –
C[C@H]1CCC/C=C/[C@@H]2C[C@H](OC(=O)CCCC(=O)OCCCCOc3ccc(-c4cc(=S)ss4)cc3)C[C@H]2[C@H](OC(=O)CCCC(=O)OCCCCOc2ccc(-c3cc(=S)ss3)cc2)/C=C/C(=O)O1 | > 40 µM | > 40 µM | > 40 µM | > 40 µM | > 40 µM | > 40 µM | > 40 µM | –
C[C@H]1CCC/C=C/[C@@H]2C[C@H](O)C[C@H]2[C@H](OC(=O)CCC(=O)OCCOc2ccc(-c3cc(=S)ss3)cc2)/C=C/C(=O)O1 | 8.3 µM | 1.19 µM | 4.65 µM | 1.85 µM | 2.73 µM | 1.69 µM | 3.47 µM | 6.97
C[C@H]1CCC/C=C/[C@@H]2C[C@H](O)C[C@H]2[C@H](OC(=O)c2ccccc2C(=O)OCCCCCCOc2ccc(-c3cc(=S)ss3)cc2)/C=C/C(=O)O1 | > 80 µM | > 40 µM | > 40 µM | > 40 µM | > 40 µM | > 40 µM | > 40 µM | –
C[C@H]1CCC/C=C/[C@@H]2C[C@H](O)C[C@H]2[C@H](OC(=O)c2ccccc2C(=O)OCCOc2ccc(-c3cc(=S)ss3)cc2)/C=C/C(=O)O1 | > 80 µM | > 40 µM | > 40 µM | > 40 µM | > 40 µM | > 40 µM | > 40 µM | –
C[C@H]1CCC/C=C/[C@@H]2C[C@H](O)C[C@H]2[C@H](OC(=O)c2ccccc2C(=O)OCCCCOc2ccc(-c3cc(=S)ss3)cc2)/C=C/C(=O)O1 | > 80 µM | > 40 µM | > 40 µM | > 40 µM | > 40 µM | > 40 µM | 26.9 µM | –
C[C@H]1CCC/C=C/[C@@H]2C[C@H](OC(=O)CCC(=O)OCCCCOc3ccc(-c4cc(=S)ss4)cc3)C[C@H]2[C@H](OC(=O)CCC(=O)OCCCCOc2ccc(-c3cc(=S)ss3)cc2)/C=C/C(=O)O1 | > 40 µM | > 40 µM | > 40 µM | > 40 µM | > 40 µM | > 40 µM | > 40 µM | –
C[C@H]1CCC/C=C/[C@@H]2C[C@H](OC(=O)CCCC(=O)OCCCCCCOc3ccc(-c4cc(=S)ss4)cc3)C[C@H]2[C@H](OC(=O)CCCC(=O)OCCCCCCOc2ccc(-c3cc(=S)ss3)cc2)/C=C/C(=O)O1 | > 40 µM | > 40 µM | > 40 µM | > 40 µM | > 40 µM | > 40 µM | > 40 µM | –
C[C@H]1CCC/C=C/[C@@H]2C[C@H](OC(=O)CCC(=O)OCCCCCCOc3ccc(-c4cc(=S)ss4)cc3)C[C@H]2[C@H](OC(=O)CCC(=O)OCCCCCCOc2ccc(-c3cc(=S)ss3)cc2)/C=C/C(=O)O1 | > 40 µM | > 40 µM | > 40 µM | > 40 µM | > 40 µM | > 40 µM | > 40 µM | –
C[C@H]1CCC/C=C/[C@@H]2C[C@H](O)C[C@H]2[C@H](OC(=O)CCCC(=O)OCCCCCCOc2ccc(-c3cc(=S)ss3)cc2)/C=C/C(=O)O1 | 3.24 µM | 0.51 µM | 1.72 µM | 1.11 µM | 0.67 µM | 0.53 µM | 0.37 µM | 6.35
C[C@H]1CCC/C=C/[C@@H]2C[C@H](OC(=O)c3ccccc3C(=O)Oc3ccc(-c4cc(=S)ss4)cc3)C[C@H]2[C@H](OC(=O)c2ccccc2C(=O)Oc2ccc(-c3cc(=S)ss3)cc2)/C=C/C(=O)O1 | > 40 µM | > 40 µM | > 40 µM | > 40 µM | > 40 µM | > 40 µM | > 40 µM | –
C[C@H]1CCC/C=C/[C@@H]2C[C@H](OC(=O)CCC(=O)OCCOc3ccc(-c4cc(=S)ss4)cc3)C[C@H]2[C@H](O)/C=C/C(=O)O1 | > 80 µM | > 40 µM | > 40 µM | > 40 µM | > 40 µM | > 40 µM | > 40 µM | –
C[C@H]1CCC/C=C/[C@@H]2C[C@H](OC(=O)c3ccccc3C(=O)OCCCCOc3ccc(-c4cc(=S)ss4)cc3)C[C@H]2[C@H](OC(=O)c2ccccc2C(=O)OCCCCOc2ccc(-c3cc(=S)ss3)cc2)/C=C/C(=O)O1 | > 40 µM | > 40 µM | > 40 µM | > 40 µM | > 40 µM | > 40 µM | > 40 µM | –
C[C@H]1CCC/C=C/[C@@H]2C[C@H](OC(=O)CCCC(=O)Oc3ccc(-c4cc(=S)ss4)cc3)C[C@H]2[C@H](OC(=O)CCCC(=O)Oc2ccc(-c3cc(=S)ss3)cc2)/C=C/C(=O)O1 | > 40 µM | > 40 µM | > 40 µM | > 40 µM | > 40 µM | > 40 µM | > 40 µM | –
C[C@H]1CCC/C=C/[C@@H]2C[C@H](OC(=O)CCCC(=O)OCCOc3ccc(-c4cc(=S)ss4)cc3)C[C@H]2[C@H](OC(=O)CCCC(=O)OCCOc2ccc(-c3cc(=S)ss3)cc2)/C=C/C(=O)O1 | > 40 µM | > 40 µM | > 40 µM | > 40 µM | > 40 µM | > 40 µM | > 40 µM | –
CC(=O)O[C@H]1C(=O)[C@@]2(C)[C@H]([C@H](OC(=O)c3ccccc3)[C@]3(O)C[C@H](OC(=O)[C@H](O)[C@@H](NC(=O)c4ccccc4)c4ccccc4)C(C)=C1C3(C)C)[C@]1(OC(C)=O)CO[C@@H]1C[C@@H]2O [PACLITAXEL] | 0.13 µM | 0.33 µM | 0.55 µM | – | 0.014 µM | 0.059 µM | 0.034 µM | –
Oc1ccc(-c2cc(=S)ss2)cc1 | 16.8 µM | 33.2 µM | 13.8 µM | 12.7 µM | 27.6 µM | > 40 µM | 6.48 µM | –
